Source: patent US11242406B2, “Methods for the treatment of a cancer or fibrotic disorder associated with MENA or MENA(INV) by administering a map kinase inhibitor” (METASTAT, INC., priority 2016, dated 2022)

Experiments:
[1] = tested on: MDA-MB-231-MENA^INV cells; experiment: Boyden Chamber cell migration and chemotaxis assay; format: cell-based, human; conditions: 18 hours
Experimental: MENA kinase inhibitors reverse MENA-dependent cell migration and chemotaxis in the Boyden Chamber Assay. […] The fibronectin coated upper chamber were then transferred to wells containing basal media (negative controls) and wells containing basal media, EGF, and MENA kinase inhibitors at the concentrations indicated in FIG. 11. All treatment conditions except the basal negative control used EGF as the chemoattractant. After 18 hours, cells that migrated through the pores toward the chemotattractant were evaluated by quantitative immunostaining using imageJ software as described above. Data were analyzed using anova (n=2) and reported relative to the EGF stimulated cells absent any inhibitor positive control (0) as mean with error of the mean in FIG. 11.

[2] = tested on: MDA-MB-231-MENA^INV cells; experiment: Wound healing cell migration assay; format: cell-based, human; conditions: 18 hours, fully supplemented medium, without drug 50%
Experimental: MENA kinase inhibitors block MENA-dependent cell migration in a wound-healing assay. The ability of the various MENA kinase inhibitors described above to block MENA-dependent cell migration of MDA-MB-231-MENA^INV cells was assayed using the CySelect™ wound healing assay kit (Cell Biolabs, Inc., San Diego, Calif.). Following the manufacturer's protocol, cells were cultured in fibronectin coated wells until a monolayer formed around the wound insert. The insert was then removed and cells were cultured in the presence of inhibitor at the indicated concentrations in FIG. 9 in fully supplemented medium. After 18 hours the cells were fixed, stained, and evaluated for their capacity to close the wound generated by the insert by fluorescence microscopy.

[3] = tested on: MDA-MB-231-MENA^INV cells; experiment: Matrigel invasion chamber assay (cell invasion and chemotaxis towards EGF); format: cell-based, human; conditions: 18 hours
Experimental: Addition of MENA kinase inhibitors to cells grown in fully supplemented medium reduce the capability of the breast cancer cell line to migrate in the wound healing assay (panels (c)-(h)). Panel (a) represents the wound size at the start of treatment. Cells that were cultured overnight in fully supplemented medium without drug (panel (b)) were able to close 50% of the wound. […] The ability of the various MENA kinase inhibitors described above to inhibit […] tumor cell invasion was tested using the BioCoatTM Matrigel® invasion chamber assay (Corning, Tewksbury, Mass.). […] Inserts were transferred to wells containing basal media (negative control) and the chemoattractant EGF with or without each of the MENA kinase inhibitors. After 18 hours cells that invaded the lower cell surface of the membrane were fixed, stained and evaluated by quantitative immunostaining using imageJ software.

[4] = tested on: MENA kinase-dependent phosphorylation of MENA^INV at Ser144; experiment: Quantitative immunoblot of pSer125/pSer144 MENA/MENA^INV in TNF-alpha stimulated MVD7-MENA^INV cells; format: cell-based, mouse; conditions: FIG. 2
Experimental: Anti-phospho-MENA antibodies specific for the Ser125/Ser144 phosphorylation site in MENA/MENA^INV were produced in animals injected with peptide containing mouse MENA residues 117-133 phosphorylated at Ser125 and conjugated to KLH (Covance Research Products, Denver, Pa.). Purification of pSer125MENA antibody was performed according to the protocol of Archuleta, et al. (Archuleta, Stutzke, Nixon, & Browning, Optimized protocol to make phospho-specific antibodies that work. Methods Mol. Biol. 717:69-88, 2011). Peptides used for purification (phosphorylated peptide: Ac-CKKGPTLPRQN(pS)QLPAQVQN (SEQ ID NO: 32) and dephosphorylated: […] (SEQ ID NO:32)) were prepared by Covance Research Products (BioLegend, San Diego, Calif.) and ThermoScientific, Grand Island, N.Y., respectively. Peptides were coupled to SulfoLink Coupling Resin Column (ThermoScientific) according to manufacturer's instructions. Sera were sequentially passed over column containing dephosphorylated peptide, and then over the column containing phosphorylated peptide. Antibodies bound to second column were eluted using IgG Elution buffer (ThermoScientific).
Phosphorylation of MENA and or MENA isoforms is inhibited by MENA kinase inhibitors from the Ras-Raf-MEK-MAPK/ERK and PI3K-AKT/mTOR pathways. […] Phosphorylation was measured by quantitative immunoblot assays using MENA antibodies specific for the phosphorylation of MENA/MENA^INV at Ser125/Ser144 Cells were stimulated and the MENA kinase was activated through treatment with 10 ng/ml TNF-alpha. […]

[5] = tested on: MVD7-MENA^INV cells; experiment: Fibronectin fibrillogenesis assay; format: cell-based, mouse; conditions: for MENA-dependent fibronectin fibrillogenesis phenotype compared to the MENA-null control: FIG. 8
Experimental: MENA kinase inhibitors reversed MENA-dependent fibrillogenesis. The ability of the various MENA kinase inhibitors described above to reverse MENA-dependent fibrillogenesis was evaluated in fibronectin fibrillogenesis assays using the […] cell line. Cells were pretreated with MENA kinase inhibitor for 1 hour at the concentrations indicated in FIG. 8 and cultured in medium containing fibronectin-depleted serum supplemented with labeled fibronectin. After 4 hours, fibronectin fibril formation was evaluated by quantitative immunostaining using imageJ software to measure abundance and distribution of fibrillar fibronectin (anova, n=3). The results are plotted relative to control MVD7-GFP cells in FIG. 8.

[6] = target: MAPKAPK2/MK2 (Homo sapiens, UniProt P49137); conditions: cited from earlier work
Sequence of MAPKAPK2/MK2 (P49137 whole entry): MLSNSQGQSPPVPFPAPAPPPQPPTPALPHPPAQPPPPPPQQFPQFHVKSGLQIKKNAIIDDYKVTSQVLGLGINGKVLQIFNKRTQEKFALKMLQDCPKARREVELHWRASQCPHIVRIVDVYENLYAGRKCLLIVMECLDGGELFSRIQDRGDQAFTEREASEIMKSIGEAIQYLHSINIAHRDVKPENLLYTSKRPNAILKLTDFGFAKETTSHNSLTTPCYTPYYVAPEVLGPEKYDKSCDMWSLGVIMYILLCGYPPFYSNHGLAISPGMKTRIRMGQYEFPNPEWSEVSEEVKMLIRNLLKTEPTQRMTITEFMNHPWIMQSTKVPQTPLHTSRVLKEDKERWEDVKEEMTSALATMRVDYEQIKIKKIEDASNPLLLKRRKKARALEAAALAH

[7] = tested on: HSP27 Ser82 phosphorylation site; experiment: Mass spec phosphoproteomic analysis of MAPKAPK2/MK2-dependent phosphorylation; format: cell-based; conditions: doxorubicin treated cells
From the text: (§1) The present invention is also based in part on the discovery that the peptide sequence proximal to the serine 125 (Ser125) phosphorylation site of MENA and the equivalent serine 144 (Ser144) phosphorylation site of MENA^INV are potent substrates of the MAPKAPK2/MK2 kinase. Replacement of Ser125 in MENA and or Ser144 in MENA^INV with a non-phosphorylable amino acid changes the peptide substrates to effective peptide inhibitors of the MAPKAPK2/MK2 kinase. […] In doxorubicin treated cells the MENA Ser125 phosphorylation site becomes more heavily phosphorylated (˜8× increase) than the HSP27 Ser82 phosphorylation site (˜2.5× increase). The Ser125/Ser144 serine residue was replaced with a non-phosphorylatable glycine residue to convert the MENA/MENA^INV substrate peptides into effective MENA kinase inhibitors.

[8] = tested on: MENA Ser125 phosphorylation site; experiment: as above; format: cell-based; conditions: doxorubicin treated cells
From the text: as §1

Row | Compound | MENA-dependent migration/chemotaxis phenotype (cells migrated through fibronectin coated membrane towards EGF) ([1]; 10 uM) | wound closure ([2]; 10 uM) [%] | relative number of cells that invade through Matrigel insert membranes towards EGF ([3]; 10 uM) | level of phosphorylated MENA^INV ([4]; inhibitor at 1 uM) | MENA-dependent fibronectin fibrillogenesis phenotype compared to the MENA-null control [5] | further results
1 | CC(C)(C)Cn1c(N)nc2ccc(-c3[nH]c(C(C)(C)C)nc3-c3ccc(F)cc3)nc21.CS(=O)(=O)O [LY2228820, 5-[2-tert-butyl-4-(4-fluorophenyl)-1H-imidazol-5-yl]-3-(2,2-dimethylpropyl)imidazo[4,5-b]pyridin-2-amine; methanesulfonic acid] | significantly reverse | 20 | significantly reduce | significantly reduce | – | –
2 | KKKALHRQLGVAA (MAPKAPK2/MK2 inhibitor derived from HSP25) | – | – | – | – | significantly reduced | MENA-dependent migration/chemotaxis phenotype (cells migrated through fibronectin coated membrane towards EGF) ([1]; 100 uM): significantly reverse; MENA-dependent migration/chemotaxis phenotype (cells migrated through fibronectin coated membrane towards EGF) ([1]; 300 uM): significantly reverse; wound closure ([2]; 300 uM): 15%; relative number of cells that invade through Matrigel insert membranes towards EGF ([3]; 100 uM): significantly reduce; relative number of cells that invade through Matrigel insert membranes towards EGF ([3]; 300 uM): significantly reduce; MENA-dependent fibronectin fibrillogenesis phenotype ([5]; increasing concentrations, 100 and 300 uM, 4 hours): Dose-dependent reductions; inhibition of MAPKAPK2/MK2 [6]: potent inhibitor
3 | Cc1ccc(-c2ccc3c(ccc4sc5c(c43)NC[C@@H](C)NC5=O)n2)cn1.O [PF-3644022, (10R)-9,10,11,12-tetrahydro-10-methyl-3-(6-methyl-3-pyridinyl)-8H-[1,4]diazepino[5′,6′:4,5]thieno[3,2-f]quinolin-8-one hydrate] | significantly reverse | 10 | significantly reduce | – | – | level of phosphorylated MENA^INV ([4]; inhibitor at 10 uM): significantly reduce
4 | O=c1cc(N2CCOCC2)oc2c(-c3ccccc3)cccc12 [LY294002, 2-morpholin-4-yl-8-phenylchromen-4-one] | significantly reverse | 15 | significantly reduce | – | significantly reduced | –
5 | COc1cccc2c1C(=O)c1c(O)c3c(c(O)c1C2=O)C[C@@](O)(C(=O)CO)C[C@@H]3O[C@H]1C[C@H](N)[C@H](O)[C@H](C)O1 [doxorubicin] | – | – | – | – | – | increase in phosphorylation of HSP27 Ser82 site [7]: ~2.5 ×; increase in phosphorylation of MENA Ser125 site [8]: ~8 ×
6 | O=C(NOC[C@H](O)CO)c1ccc(F)c(F)c1Nc1ccc(I)cc1F [PD0325901, N-[(2R)-2,3-dihydroxypropoxy]-3,4-difluoro-2-[(2-fluoro-4-iodophenyl)amino]-benzamide] | – | – | – | significantly reduce | significantly reduced | MENA-dependent migration/chemotaxis phenotype (cells migrated through fibronectin coated membrane towards EGF) ([1]; 1 uM): significantly reverse; wound closure ([2]; 1 uM): 15%; relative number of cells that invade through Matrigel insert membranes towards EGF ([3]; 1 uM): significantly reduce
